One experiment relates to MIA PaCa-2 cells. Kind of experiment: MTT assay, cancer cell growth inhibition (MIA PaCa-2). Conditions: Homo sapiens, MIA PaCa-2, 168 h, 7 days of treatment, read-out: MiaPaCa IC50. In kind it is cell-based. How it is done:
(§1) Measurement of cancer cell growth inhibition of the compounds of invention Cytotoxicity of the compounds was assessed by MTT assay. In brief, MIA PaCa-2 cells or BxPc3 cells were seeded in 96-well microtitre plates at density of 200 cells/well. After overnight attachment, cells were treated with compounds at indicated concentration. After 7 days of treatment, MTT solution (3 mg/ml, 20 μl) was added to each well and cells were incubated for 3 h at 37° C. After incubation, media from each well was removed and the dark blue formazan crystals formed by live cells were dissolved in DMSO ([…] per well). The absorbance intensity was measured at 570 nm on a microplate reader (Molecular Devices, Sunnyvale, Calif., USA). The half maximal inhibitory concentration (IC50) value were calculated using 4 or 6 dots curve plotted with Cumulative Gaussian equation or Log(inhibitor) vs. response equation in GraphPad Prism.

The test system of the next experiment is BxPc3 cells. As to the kind of experiment: MTT assay, cancer cell growth inhibition (BxPC-3). To be noted: Homo sapiens, BXPC-3, 168 h, 7 days of treatment. In kind it is cell-based. The protocol:
as §1
(In general: Tetrazolium assays rely on reduction of a dye to a coloured formazan, in cell work by metabolically active cells.)

Each structure is given as a SMILES string.

The term IC50 denotes the concentration at which inhibition is half-maximal.

For the compound `CCOC(=O)c1cccc(S(=O)(=O)c2ccc(S(=O)(=O)N(CC)CC)cc2)c1` [DX3-3, ethyl 3-((4-(N,N-diethylsulfamoyl)phenyl)sulfonyl)benzoate], the IC50 in the experiment with MIA PaCa-2 cells worked out at 4120 ± 2440 nM; in the experiment on BxPc3 cells, 2290 ± 700 nM.

For the compound `CCOC(=O)C1CN(S(=O)(=O)c2ccc(S(=O)(=O)N(CC)CC)cc2)CCN1` (stereo not drawn) [DX3-44B, ethyl 4-((4-(N,N-diethylsulfamoyl)phenyl)sulfonyl)piperazine-2-carboxylate], the IC50 with MIA PaCa-2 cells came to 4700 ± 1920 nM; with BxPc3 cells it was 6770 ± 520 nM. Regarding `CCOC(=O)C1(F)CCCN(S(=O)(=O)c2ccc(S(=O)(=O)N(CC)CC)cc2)C1` (stereo not drawn) [DX3-47, ethyl 1-((4-(N,N-diethylsulfamoyl)phenyl)sulfonyl)-3-fluoropiperidine-3-carboxylate], the IC50 with MIA PaCa-2 cells stood at 2940 ± 320 nM; with BxPc3 cells, 4920 ± 1940 nM. `CCN(CC)S(=O)(=O)c1ccc(S(=O)(=O)N2CCC[C@@H](C(=O)N3CC4(CN(C(=O)OC(C)(C)C)C4)C3)C2)cc1` [DX3-120, tert-butyl (R)-6-(1-((4-(N,N-diethylsulfamoyl)phenyl)sulfonyl)piperidine-3-carbonyl)-2,6-diazaspiro[3.3]heptane-2-carboxylate]: the values for the IC50 in the experiment with MIA PaCa-2 cells and in the experiment with BxPc3 cells were 430 ± 180 nM and 1100 ± 160 nM, respectively. `CCN(CC)S(=O)(=O)c1ccc(S(=O)(=O)N2CCC[C@@H](C(=O)N[C@@H]3CCOC3)C2)cc1` [DX3-107B, (R)-1-((4-(N,N-diethylsulfamoyl)phenyl)sulfonyl)-N-((R)-tetrahydrofuran-3-yl)piperidine-3-carboxamide]: the results for the IC50 in the experiment with MIA PaCa-2 cells and with BxPc3 cells were 750 ± 80 nM and 2270 ± 610 nM, respectively. Take `CCN(CC)S(=O)(=O)c1ccc(S(=O)(=O)N2CCC[C@@H](C(=O)N3CCOCC3)C2)cc1` [DX3-121B, (R)-N,N-diethyl-4-((3-(morpholine-4-carbonyl)piperidin-1-yl)sulfonyl)benzenesulfonamide]: the IC50 in the experiment with MIA PaCa-2 cells turned out to be 350 ± 20 nM. As to `CCOC(=O)[C@@H]1C[C@H](O)CN(S(=O)(=O)c2ccc(S(=O)(=O)N(CC)CC)cc2)C1` (relative stereo) [DX3-14B-P1, (cis)-ethyl 1-((4-(N,N-diethylsulfamoyl)phenyl)sulfonyl)-5-hydroxypiperidine-3-carboxylate], the IC50 in the experiment with MIA PaCa-2 cells was 1350 ± 590 nM; in the experiment on BxPc3 cells, 3290 ± 60 nM. As for `CCN(CC)S(=O)(=O)c1ccc(S(=O)(=O)N2CCCC(S(=O)(=O)N(C)C)C2)cc1` (stereo not drawn) [DX3-39, 1-((4-(N,N-diethylsulfamoyl)phenyl)sulfonyl)-N,N-dimethylpiperidine-3-sulfonamide], the IC50 amounted to 5100 ± 1290 nM in the experiment on MIA PaCa-2 cells and 6300 ± 1440 nM with BxPc3 cells.

Take `CCOC(=O)[C@@H]1CCCN(S(=O)(=O)c2ccc(S(=O)(=O)N(CC)CC)cn2)C1` [DX2-293, ethyl (R)-1-((5-(N,N-diethylsulfamoyl)pyridin-2-yl)sulfonyl)piperidine-3-carboxylate]: the IC50 came to 1300 ± 450 nM in the experiment on MIA PaCa-2 cells and 1370 ± 520 nM with BxPc3 cells. As for `CCN(CC)S(=O)(=O)c1ccc(S(=O)(=O)N2CCC[C@@H](C(=O)OC3CC3)C2)cc1` [DX2-263, cyclopropyl (R)-1-((4-(N,N-diethylsulfamoyl)phenyl)sulfonyl)piperidine-3-carboxylate], the figures for the IC50 in the experiment with MIA PaCa-2 cells and in the experiment with BxPc3 cells were 300 ± 130 nM and 350 ± 60 nM, respectively. For `CCN(CC)S(=O)(=O)c1ccc(S(=O)(=O)N2CCC[C@@H](c3nc(C)no3)C2)cc1` [DX3-122B, (R)-N,N-diethyl-4-((3-(3-methyl-1,2,4-oxadiazol-5-yl)piperidin-1-yl)sulfonyl)benzenesulfonamide] the same measures were 4120 ± 1160 nM and 2860 ± 3140 nM.

As for `CCOC(=O)C12CC(CN(S(=O)(=O)c3ccc(S(=O)(=O)N(CC)CC)cc3)C1)C2` [DX3-115, ethyl 3-((4-(N,N-diethylsulfamoyl)phenyl)sulfonyl)-3-azabicyclo[3.1.1]heptane-1-carboxylate], the IC50 in the experiment on MIA PaCa-2 cells is 1040 ± 450 nM; in the experiment with BxPc3 cells, 1230 ± 790 nM. In the case of `CCN(CC)S(=O)(=O)c1ccc(S(=O)(=O)N2CCC[C@@H](C(=O)N[C@@H]3CCN(C(=O)c4ccccc4)C3)C2)cc1` [DX3-125, (R)-N-((R)-1-benzoylpyrrolidin-3-yl)-1-((4-(N,N-diethylsulfamoyl)phenyl)sulfonyl)piperidine-3-carboxamide], the IC50 in the experiment on MIA PaCa-2 cells worked out at 940 nM; in the experiment with BxPc3 cells, 3720 nM. As for `CCOC(=O)[C@@H]1CCCN(S(=N)(=O)c2ccc(S(=O)(=O)N(CC)CC)cc2)C1` (stereo partly drawn) [DX2-225, ethyl (3R)-1-(4-(N,N-diethylsulfamoyl)phenylsulfonimidoyl)piperidine-3-carboxylate], the IC50 with MIA PaCa-2 cells came out at 12100 ± 3850 nM; with BxPc3 cells it was 13400 ± 4580 nM.

With `CCOC(=O)[C@@H]1CCCN(S(=O)(=O)c2ccc(S(=O)(=O)N3CCCCC3)cc2)C1` [DX2-265, ethyl (R)-1-((4-(piperidin-1-ylsulfonyl)phenyl)sulfonyl)piperidine-3-carboxylate], the IC50 turned out to be 2870 ± 490 nM with MIA PaCa-2 cells and 3290 ± 740 nM in the experiment with BxPc3 cells.

As to `CCOC(=O)[C@@H]1CCCN(S(=O)(=O)c2ccc(S(=O)(=O)N(CC)CC)c(F)c2)C1` [DX2-275, ethyl (R)-1-((4-(N,N-diethylsulfamoyl)-3-fluorophenyl)sulfonyl)piperidine-3-carboxylate], the results for the IC50 with MIA PaCa-2 cells and in the experiment on BxPc3 cells were 930 ± 360 nM and 1610 ± 370 nM, respectively. For `CCOC(=O)[C@@H]1CCCN(S(=O)(=O)c2ccc(Oc3ccc(S(=O)(=O)N(CC)CC)cc3)cc2)C1` [DX2-230, ethyl (R)-1-((4-(4-(N,N-diethylsulfamoyl)phenoxy)phenyl)sulfonyl)piperidine-3-carboxylate] the same measures were 3920 ± 890 nM and 3880 ± 570 nM. In the case of `CCN(CC)S(=O)(=O)c1ccc(S(=O)(=O)N2CCCC(F)C2)cc1` (stereo not drawn) [DX3-49B, N,N-diethyl-4-((3-fluoropiperidin-1-yl)sulfonyl)benzenesulfonamide], the figures for the IC50 with MIA PaCa-2 cells and in the experiment with BxPc3 cells were 3650 ± 1680 nM and 8270 ± 2520 nM, respectively. In the case of `CCOC(=O)[C@H]1CCCN(S(=O)(=O)c2ccc(S(=O)(=O)N(CC)CC)cc2)C1` [DX2-202, ethyl (S)-1-((4-(N,N-diethylsulfamoyl)phenyl)sulfonyl)piperidine-3-carboxylate], the concentration for half-maximal inhibition (IC50) in the experiment with MIA PaCa-2 cells is 6080 ± 760 nM; with BxPc3 cells it was 6800 ± 2100 nM. `CCOC(=O)[C@@H]1CCCN(S(=O)(=O)c2ccc(C(=O)N(CC)CC)cc2)C1` [DX3-78B, ethyl (R)-1-((4-(diethylcarbamoyl)phenyl)sulfonyl)piperidine-3-carboxylate]: the IC50 in the experiment on MIA PaCa-2 cells came out at 280 nM; in the experiment on BxPc3 cells, 620 nM. Take `CCN(CC)S(=O)(=O)c1ccc(S(=O)(=O)N2CCC[C@@H](C(=O)N[C@H]3CCN(C(=O)OC(C)(C)C)C3)C2)cc1` [DX3-119, tert-butyl (S)-3-((R)-1-((4-(N,N-diethylsulfamoyl)phenyl)sulfonyl)piperidine-3-carboxamido)pyrrolidine-1-carboxylate]: the IC50 with MIA PaCa-2 cells stood at 130 ± 40 nM; in the experiment on BxPc3 cells it was 330 ± 120 nM. For the compound `CCN(CC)S(=O)(=O)c1ccc(S(=O)(=O)N2CCC[C@@H](C(=O)NC3COC3)C2)cc1` [DX2-242, (R)-1-((4-(N,N-diethylsulfamoyl)phenyl)sulfonyl)-N-(oxetan-3-yl)piperidine-3-carboxamide], the IC50 was 2340 ± 1010 nM with MIA PaCa-2 cells and 13800 ± 3580 nM in the experiment with BxPc3 cells.

In the case of `CCOC(=O)[C@@H]1CCCN(S(=O)(=O)c2ccc(S(=N)(=O)N(CC)CC)cc2)C1` (stereo partly drawn) [DX3-90, ethyl (3R)-1-((4-(N,N-diethylsulfamidimidoyl)phenyl)sulfonyl)piperidine-3-carboxylate], the IC50 in the experiment on MIA PaCa-2 cells is 2550 ± 150 nM; with BxPc3 cells, 3590 ± 1390 nM.

Source of the values: patent publication US20230212122A1, “MITOCHONDRIAL TARGETING COMPOUNDS FOR THE TREATMENT OF ASSOCIATED DISEASES” (The Regents of the University of Michigan, priority 2020, published 2023).
